Among the data in PubChem BioAssay AID330 (DTP/NCI, 2004) are T/C values, retold here.

The assay concerns P388 leukemia ip, CD2F1 mice, survival T/C. The assay can be described thus: NCI In Vivo Anticancer Drug Screen. Data for tumor model P388 Leukemia (intraperitoneal) in CD2F1 (CDF1) mice. The conditions noted are these: endpoint: median survival time, higher = longer survival. An outline of the steps:
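Mice carrying the transplanted tumor received test compound or vehicle. Survival was recorded in each group, and the value is the treated-group measurement divided by that of the vehicle-treated control group.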

Setting [1] is: dose: 50.0 mg/kg/injection, schedule: Q01DX005 (ip), vehicle: Klucel (hydroxypropylcellulose) (HPC).
Where [2] appears, read: dose: 100.0 mg/kg/injection, schedule: Q01DX005 (ip), vehicle: Klucel (hydroxypropylcellulose) (HPC).
Where [3] appears, read: dose: 200.0 mg/kg/injection, schedule: Q01DX005 (ip), vehicle: Klucel (hydroxypropylcellulose) (HPC).
[4] abbreviates: dose: 60.0 mg/kg/injection, schedule: Q01DX005 (ip), vehicle: saline with Tween-80.
Setting [5] is: dose: 120.0 mg/kg/injection, schedule: Q01DX005 (ip), vehicle: saline with Tween-80.
[6] abbreviates: dose: 240.0 mg/kg/injection, schedule: Q01DX005 (ip), vehicle: saline with Tween-80.
Setting [7] is: dose: 50.0 mg/kg/injection, schedule: Q01DX009 (ip), vehicle: saline with Tween-80.

Several values for one entry are separate records, joined by “and”; a condition that tells them apart may be missing. Equal entries are not always repeated. Toxic doses and inconclusive results are not listed.

Turning to `COC(=O)c1ccccc1S(=O)(=O)NC(C)C`, the T/C was 99 % of control under setting [1], 96 % of control under setting [2] and 105 % of control under setting [3].

As for `C/C=C(\CC)C(C#N)O[Si](C)(C)C` (stereo not given), the T/C runs as follows: under setting [4], 93 % of control; under setting [5], 98 % of control.

With `CSC1=NC=C(C#N)C2=NC(c3c(F)cccc3Cl)NN12` (stereo not given), the T/C is 89 % of control under setting [4], 89 % of control under setting [5] and 90 % of control under setting [6].

For the compound `COc1ccc(S(=O)(=O)N/N=C/c2ccccn2)cc1OC`, the T/C by setting is: under setting [1], 99 % of control; under setting [2], 96 % of control; under setting [3], 98 % of control.

In the case of `O=C(CCC(=O)Nc1ccccc1[N+](=O)[O-])CC(=O)c1ccc(Br)cc1`, the T/C under setting [4] is 105 % of control, the T/C under setting [5] was 106 % of control and the T/C under setting [6] was 106 % of control.

On to `C=C1C(=O)OC2/C=C(\C)CC(O)/C=C(/CO)CC(OC(=O)/C(C)=C/C)C12` (stereo not given), for which the T/C is 111 % of control (dose: 7.5 mg/kg/injection, schedule: Q01DX009 (ip), vehicle: saline + alcohol) and 121 % of control (dose: 10.0 mg/kg/injection, schedule: Q01DX009 (ip), vehicle: saline + alcohol).

Take `CCC1CN2CCc3cc(OC)c(OC)cc3C2CC1CC1c2cc(OC)c(OC)cc2CCN1C(=O)C(Cc1c[nH]c2ccccc12)NC(=O)OC(C)(C)C` (stereo not given): the T/C is 105 % of control (dose: 25.0 mg/kg/injection, schedule: Q01DX009 (ip), vehicle: saline with Tween-80); 115 % of control under setting [7]; 104 % of control (dose: 66.0 mg/kg/injection, schedule: Q01DX009 (ip), vehicle: saline with Tween-80); 104 % of control (dose: 100.0 mg/kg/injection, schedule: Q04DX003 (ip), vehicle: saline with Tween-80).

In the case of `CCN(CC)CCCN1CC(=O)N2CCCCN2C(=O)C1`, the T/C is 102 % of control (dose: 50.0 mg/kg/injection, schedule: Q01DX005 (ip), vehicle: saline); 100 % of control (dose: 100.0 mg/kg/injection, schedule: Q01DX005 (ip), vehicle: saline); 100 % of control (dose: 200.0 mg/kg/injection, schedule: Q01DX005 (ip), vehicle: saline).

For `CCOC(=O)CN(CC(=O)OCC)c1ccccc1OCCOc1ccccc1N(CC(=O)OCC)CC(=O)OCC`, the T/C (dose: 60.0 mg/kg/injection, schedule: Q01DX005 (ip), vehicle: Klucel (hydroxypropylcellulose) (HPC)) is 95 % of control; the T/C (dose: 120.0 mg/kg/injection, schedule: Q01DX005 (ip), vehicle: Klucel (hydroxypropylcellulose) (HPC)) was 96 % of control; the T/C (dose: 240.0 mg/kg/injection, schedule: Q01DX005 (ip), vehicle: Klucel (hydroxypropylcellulose) (HPC)) was 93 % of control.

`CSCOC/C=C(\C)CCC=C(C)C`: the T/C by setting is: under setting [7], 98 % of control; (dose: 100.0 mg/kg/injection, schedule: Q01DX009 (ip), vehicle: saline with Tween-80) 100 % of control; (dose: 200.0 mg/kg/injection, schedule: Q01DX009 (ip), vehicle: saline with Tween-80) 114 % of control.

`O=C1c2ccccc2-c2n[nH]c3cccc1c23`: the T/C reads like this: (dose: 50.0 mg/kg/injection, schedule: Q01DX009 (ip), vehicle: Klucel (hydroxypropylcellulose) (HPC)) 101 % of control; (dose: 100.0 mg/kg/injection, schedule: Q01DX009 (ip), vehicle: Klucel (hydroxypropylcellulose) (HPC)) 102 % of control; (dose: 200.0 mg/kg/injection, schedule: Q01DX009 (ip), vehicle: Klucel (hydroxypropylcellulose) (HPC)) 96 % of control; (dose: 400.0 mg/kg/injection, schedule: Q01DX009 (ip), vehicle: Klucel (hydroxypropylcellulose) (HPC)) 95 % of control.

As for `Cc1ccc(C(=O)/C(=C/c2ccccn2)N=[N+]=[N-])cc1`, the T/C reads like this: (dose: 100.0 mg/kg/injection, schedule: Q01DX001 (ip), vehicle: saline with Tween-80) 110 % of control; (dose: 200.0 mg/kg/injection, schedule: Q01DX001 (ip), vehicle: saline with Tween-80) 104 % of control; (dose: 400.0 mg/kg/injection, schedule: Q01DX001 (ip), vehicle: saline with Tween-80) 99 % of control.

For `C1N2CN3CN1CP(C2)C3`, the T/C by setting is: (dose: 50.0 mg/kg/injection, schedule: Q01DX009 (ip), vehicle: saline) 112 % of control; (dose: 100.0 mg/kg/injection, schedule: Q01DX009 (ip), vehicle: saline) 115 % of control; (dose: 200.0 mg/kg/injection, schedule: Q01DX009 (ip), vehicle: saline) 106 % of control.

In the case of `CCc1nc(N)nc(N)c1-c1ccc(Cl)c(N)c1`, the T/C (dose: 3.12 mg/kg/injection, schedule: Q01DX009 (ip), vehicle: distilled water + Tween-80) was 101 % of control; the T/C (dose: 6.25 mg/kg/injection, schedule: Q01DX009 (ip), vehicle: distilled water + Tween-80) was 111 % of control; the T/C (dose: 12.5 mg/kg/injection, schedule: Q01DX009 (ip), vehicle: distilled water + Tween-80) is 110 % of control; the T/C (dose: 25.0 mg/kg/injection, schedule: Q01DX009 (ip), vehicle: distilled water + Tween-80) was 100 % of control; the T/C (dose: 50.0 mg/kg/injection, schedule: Q01DX009 (ip), vehicle: distilled water + Tween-80) is 100 % of control and 111 % of control; the T/C (dose: 100.0 mg/kg/injection, schedule: Q01DX009 (ip), vehicle: distilled water + Tween-80) is 105 % of control. For the same compound, the T/C by setting is: (dose: 200.0 mg/kg/injection, schedule: Q01DX009 (ip), vehicle: distilled water + Tween-80) 101 % of control; (dose: 400.0 mg/kg/injection, schedule: Q01DX009 (ip), vehicle: distilled water + Tween-80) 118 % of control.

`CC1CCC(NC(=O)N(CCCl)N=O)CC1` (stereo not given): the T/C by setting is: (dose: 1.0 mg/kg/injection, schedule: Q01DX009 (ip), vehicle: saline sonified) 112 % of control; (dose: 2.0 mg/kg/injection, schedule: Q01DX009 (ip), vehicle: saline with Tween-80) 122 % of control; (dose: 3.0 mg/kg/injection, schedule: Q04DX003 (ip), vehicle: other) 163 % of control; (dose: 3.75 mg/kg/injection, schedule: Q04DX003 (ip), vehicle: other) 163 % of control; (dose: 4.0 mg/kg/injection, schedule: Q01DX009 (ip), vehicle: saline sonified) 166 % of control; (dose: 4.0 mg/kg/injection, schedule: Q01DX009 (ip), vehicle: saline with Tween-80) 154 % of control. Moreover, the T/C was 238 % of control (dose: 5.0 mg/kg/injection, schedule: Q04DX003 (ip), vehicle: other); 247 % of control (dose: 6.0 mg/kg/injection, schedule: Q04DX003 (ip), vehicle: other); 225 % of control (dose: 7.5 mg/kg/injection, schedule: Q04DX003 (ip), vehicle: other); 100 % of control (dose: 8.0 mg/kg/injection, schedule: Q01DX009 (ip), vehicle: saline sonified); 190 % of control (dose: 8.0 mg/kg/injection, schedule: Q01DX009 (ip), vehicle: saline with Tween-80); 160 % of control (dose: 10.0 mg/kg/injection, schedule: Q04DX003 (ip), vehicle: other). Besides, the T/C is 108 % of control and 120 % of control (dose: 10.0 mg/kg/injection, schedule: Q04DX003 (ip), vehicle: saline with Tween-80); 238 % of control (dose: 12.0 mg/kg/injection, schedule: Q04DX003 (ip), vehicle: other); 441 % of control (dose: 15.0 mg/kg/injection, schedule: Q04DX003 (ip), vehicle: other); 218 % of control (dose: 15.0 mg/kg/injection, schedule: Q04DX003 (ip), vehicle: saline with Tween-80); 109 % of control (dose: 16.0 mg/kg/injection, schedule: Q01DX009 (ip), vehicle: saline with Tween-80); 231 % of control (dose: 20.0 mg/kg/injection, schedule: Q04DX003 (ip), vehicle: other). The T/C was 227 % of control and 250 % of control (dose: 20.0 mg/kg/injection, schedule: Q04DX003 (ip), vehicle: saline with Tween-80); 110 % of control (dose: 24.0 mg/kg/injection, schedule: Q04DX003 (ip), vehicle: other); 156 % of control (dose: 30.0 mg/kg/injection, schedule: Q04DX003 (ip), vehicle: other).

As to `CC1(CCl)COP(=O)(NN)OC1` (stereo not given), the T/C reads like this: (dose: 60.0 mg/kg/injection, schedule: Q01DX005 (ip), vehicle: saline) 101 % of control; (dose: 120.0 mg/kg/injection, schedule: Q01DX005 (ip), vehicle: saline) 102 % of control.
